From patent publication US4508645A, “Analogs of neurohypophysial hormones with inhibition effects” (Ceskoslovenska akademie ved, priority 1982, dated 1985)

How the values were obtained:
[1] = test system: uterus in vitro; assay: uterotonic efficiency in vitro, inhibition activity pA2; assay type: cell-based; conditions: pA2, negative logarithm of molar inhibitor concentration; decimal commas
Source text: (§1) Certain biological effects of the analogs of oxytocin and vasopressin are set forth in Table I. The inhibition effects of compounds in an in vitro test are expressed as values of pA2, which is the negative logarithm of the molar concentration of inhibitor. This reduces the response of 2X units of an agonistic compound to be equal to the response of 1X units in the absence of inhibitor (Schild, Brit. J. Pharmacol. 2, 189, 1947; Dyckes et al, J. Med. Chem. 17, 160, 1974). In an […] test (uterus in vitro), the value of pA2 corresponds with the negative logarithm of an inhibitor constant according to the relationship [formula] wherein B is the concentration of inhibitor (M), A50 is the concentration of agonistic compound leading to 50% of the maximum effect, and A50B is the concentration of agonistic compound leading to 50% of the maximum effect in the presence of inhibitor B (Eggena et al, J. Gen. Physiol. 52, 465, 1968).

[2] = test system: pressor; assay: pressor efficiency, inhibition activity pA2; assay type: in vivo; conditions: decimal commas
Source text: as §1

[3] = test system: galactogogic; assay: galactogogic efficiency, inhibition activity pA2; assay type: in vivo; conditions: for Inhibition activity pA2 in the determination of efficiency galactogogic: decimal commas
Source text: as §1

[4] = test system: uterus in situ; assay: uterotonic efficiency in situ, inhibition activity pA2; assay type: in vivo; conditions: pA2, negative logarithm of inhibitor constant; decimal commas
Source text: as §1

`CC[C@H](C)[C@@H]1NC(=O)[C@H](Cc2ccc(O)cc2)NC(=O)[C@@H](NC(C)=O)C(C)(C)SSC[C@@H](C(=O)N2CCC[C@H]2C(=O)N[C@@H](CC(C)C)C(=O)NCC(N)=O)NC(=O)[C@H](CC(N)=O)NC(=O)[C@H](CCC(N)=O)NC1=O` [Ia, [1-N-acetylpenicilamine]oxytocin] was tested, and the “Inhibition activity pA2 in the determination of efficiency uterotonic in vitro” value (shortened to “Inhibition activity pA2 … in vitro”) [1] was 4,4 and the “Inhibition activity pA2 in the determination of efficiency pressor” value [2] was “ineffective”.
`CC[C@H](C)[C@@H]1NC(=O)[C@H](Cc2ccc(OC)cc2)NC(=O)[C@@H](NC(C)=O)C(C)(C)SSC[C@@H](C(=O)N2CCC[C@H]2C(=O)N[C@@H](CC(C)C)C(=O)NCC(N)=O)NC(=O)[C@H](CC(N)=O)NC(=O)[C@H](CCC(N)=O)NC1=O` [Ic, [1-N-acetylpenicilamine, 2-O-methyltyrosine]oxytocin] was tested, and the “Inhibition activity pA2 … in vitro” value [1] was 5,4, the “Inhibition activity pA2 in the determination of efficiency pressor” value [2] was 6,4 and the galactogogic agonistic activity ([3]; footnote b: agonistic activity, not pA2) was 0,45 I.U./mg.
For `CC1(C)SSC[C@@H](C(=O)N2CCC[C@H]2C(=O)N[C@@H](CCCCN)C(=O)NCC(N)=O)NC(=O)[C@H](CC(N)=O)NC(=O)[C@H](CCC(N)=O)NC(=O)[C@H](Cc2ccccc2)NC(=O)[C@H](Cc2ccc(O)cc2)NC(=O)[C@H]1N` [Id, [1-Penicilamine, 8-lysine]vasopressin], the “Inhibition activity pA2 … in vitro” value [1] was 6,6, the “Inhibition activity pA2 in the determination of efficiency uterotonic in situ” value (shortened to “Inhibition activity pA2 … in situ”) [4] was 6,3 and the “Inhibition activity pA2 in the determination of efficiency pressor” value [2] was 6,9.
`CC(=O)N[C@@H]1C(=O)N[C@@H](Cc2ccc(O)cc2)C(=O)N[C@@H](Cc2ccccc2)C(=O)N[C@@H](CCC(N)=O)C(=O)N[C@@H](CC(N)=O)C(=O)N[C@H](C(=O)N2CCC[C@H]2C(=O)N[C@@H](CCCCN)C(=O)NCC(N)=O)CSSC1(C)C` [Ie, [1-N-Actylpenicilamine, 8-lysine]vasopressin] was tested, and the “Inhibition activity pA2 … in vitro” value [1] was 5,5, the “Inhibition activity pA2 … in situ” value [4] was 6,3 and the “Inhibition activity pA2 in the determination of efficiency pressor” value [2] was “ineffective”. For the same compound, the “Inhibition activity pA2 in the determination of efficiency galactogogic” value [3] was “ineffective”.
In the case of `COc1ccc(C[C@@H]2NC(=O)[C@@H](N)C(C)(C)SSC[C@@H](C(=O)N3CCC[C@H]3C(=O)N[C@@H](CCCCN)C(=O)NCC(N)=O)NC(=O)[C@H](CC(N)=O)NC(=O)[C@H](CCC(N)=O)NC(=O)[C@H](Cc3ccccc3)NC2=O)cc1` [If, [1-Penicilamine, 2-O-methyltyrosine, 8-lysine]vasopressin], the “Inhibition activity pA2 … in vitro” value [1] is reported as 8,1, the “Inhibition activity pA2 … in situ” value [4] is reported as 6,9 and the “Inhibition activity pA2 in the determination of efficiency pressor” value [2] is reported as 7,4. For the same compound, the “Inhibition activity pA2 in the determination of efficiency galactogogic” value [3] was 6,8.
In the case of `COc1ccc(C[C@@H]2NC(=O)[C@@H](NC(C)=O)C(C)(C)SSC[C@@H](C(=O)N3CCC[C@H]3C(=O)N[C@@H](CCCCN)C(=O)NCC(N)=O)NC(=O)[C@H](CC(N)=O)NC(=O)[C@H](CCC(N)=O)NC(=O)[C@H](Cc3ccccc3)NC2=O)cc1` [Ig, [1-N-acetylpenicilamine, 2-O-methyltyrosine, 8-lysine]vasopressin], the “Inhibition activity pA2 in the determination of efficiency pressor” value [2] is reported as 6,7 and the “Inhibition activity pA2 in the determination of efficiency galactogogic” value [3] is reported as “ineffective”.
With `CC1(C)SSC[C@H](N)C(=O)N[C@@H](Cc2ccc(O)cc2)C(=O)N[C@@H](Cc2ccccc2)C(=O)N[C@@H](CCC(N)=O)C(=O)N[C@@H](CC(N)=O)C(=O)N[C@@H]1C(=O)N1CCC[C@H]1C(=O)N[C@@H](CCCCN)C(=O)NCC(N)=O` [Ih, [6-Penicilamine, 8-lysine]vasopressin] the “Inhibition activity pA2 … in vitro” value [1] was 6,00, the “Inhibition activity pA2 … in situ” value [4] was 6,16 and the “Inhibition activity pA2 in the determination of efficiency pressor” value [2] was 6,73.
`CC1(C)SSC(C)(C)[C@@H](C(=O)N2CCC[C@H]2C(=O)N[C@@H](CCCCN)C(=O)NCC(N)=O)NC(=O)[C@H](CC(N)=O)NC(=O)[C@H](CCC(N)=O)NC(=O)[C@H](Cc2ccccc2)NC(=O)[C@H](Cc2ccc(O)cc2)NC(=O)[C@H]1N` [Ii, [1-Penicilamine, 6-penicilamine, 8-lysine]vasopressin] was tested, and the “Inhibition activity pA2 … in vitro” value [1] was 6,80, the “Inhibition activity pA2 … in situ” value [4] was 6,80 and the “Inhibition activity pA2 in the determination of efficiency pressor” value [2] was 7,18.
“[1-Penicilamine, 2-O-methyltyrosine]oxytocin [Ib]” was tested, and the “Inhibition activity pA2 … in vitro” value [1] was 8,0, the “Inhibition activity pA2 … in situ” value [4] was 6,9 and the “Inhibition activity pA2 in the determination of efficiency pressor” value [2] was 7,2. The “Inhibition activity pA2 in the determination of efficiency galactogogic” value [3] was 6,8.
